In PubChem BioAssay (NCI) one finds TGI data, which are given here for 15 compounds.

Common to all, as to experiment: NCI tumour cell line growth inhibition, 48 h
The subject of assay [1] is A549 NSCLC.
Assay [2] has as its system U251 CNS.
The subject of assay [3] is NCI/ADR-RES ovarian.
The subject of assay [4] is MALME-3M melanoma.
Assay [5] deals with TK-10 renal.
Assay [6] concerns HOP-92 NSCLC.
Assay [7] relates to NCI-H23 lung.
In assay [8] the test system is SF-268 CNS.
Assay [9] concerns MDA-MB-231 breast.
The test system of assay [10] is OVCAR-8 ovarian.
Assay [11] has as its system SW-620 colon.
Assay [12] concerns OVCAR-3 ovarian.
For assay [13], the system named is A498 renal.
Assay [14] concerns UACC-62 melanoma.
The subject of assay [15] is T-47D breast.
Assay [16] concerns SF-539 CNS.
The test system of assay [17] is SN12C renal.
For assay [18], the system named is CCRF-CEM leukemia.
Assay [19] deals with HL-60(TB) leukemia.

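Each compound was tested at five concentrations against cells in 96-well plates for 48 hours. The concentration for full growth arrest is given as TGI.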 Some results are limits rather than exact numbers.

Consider `CCOC(=O)c1c[nH]c(C(=O)C=[N+]=[N-])c1C1CCN(CC)C1=S` (stereo not drawn), for which the TGI in assay [1], in assay [2], in assay [3], in assay [4], in assay [5] and in assay [6] was greater than 100 µM throughout. For the same compound, the TGI in assay [7], in assay [8], in assay [9], in [10], in assay [11] and in assay [12] was greater than 100 µM in each case. The TGI in [13], in [14] and in assay [15] was greater than 100 µM each time.
As for `CN(N=O)c1nc2c(C(N)=O)ncn2s1`, the TGI in assay [1], in assay [2], in assay [16], in assay [3], in assay [4] and in assay [5] was greater than 100 µM throughout. Besides, the TGI in assay [6], in assay [17], in assay [7], in assay [8], in assay [9] and in [10] was greater than 100 µM each time. Moreover, the TGI in assay [11], in assay [12], in assay [18], in [13], in assay [14] and in [15] was greater than 100 µM in each case.
For `O=[N+]([O-])c1cccc2nccc(NCCN3CCOCC3)c12`, the TGI in assay [1] is 43.3 µM; in [2] it was greater than 53.9 µM; in [16], 57.2 µM; in assay [3], greater than 100 µM; in assay [4] it was 18.7 µM; in [5], greater than 48.4 µM. Also, the TGI in assay [6] was greater than 100 µM; in assay [17], greater than 48 µM; in assay [7] it was greater than 65.1 µM; in [8] it was greater than 66.7 µM; in assay [9] it was 71.1 µM; in assay [10] it was greater than 54.2 µM. Besides, the TGI in assay [11] is 33.7 µM; in assay [12], 25.2 µM; in [19] it was greater than 34.6 µM; in assay [18], greater than 64.8 µM; in assay [13], 29.3 µM; in assay [15], greater than 100 µM.
Turning to `C=CCN1CCC(c2cc(C(=O)OCC)[nH]c2-c2cc(C)no2)C1=O` (stereo not drawn), the TGI in assay [1], in [2], in [16], in assay [3], in [4] and in assay [6] was greater than 100 µM in each case. Further, the TGI in assay [17], in [7], in assay [8], in assay [9], in assay [10] and in assay [11] was greater than 100 µM throughout. For the same compound, the TGI in assay [12], in [19], in assay [18], in assay [13], in [14] and in [15] was greater than 100 µM in each case.
With `Cc1ccc(S(=O)(=O)N2CCNCCN(S(=O)(=O)c3ccc(C)cc3)CCNCC2)cc1`, the TGI in assay [1] was greater than 100 µM; in assay [2], 41.1 µM; in [16], 34.7 µM; in assay [3], greater than 100 µM; in assay [4], 33.1 µM; in assay [5] it was 44 µM. The TGI was 46.7 µM in assay [6]; greater than 100 µM in [17]; greater than 100 µM in assay [7]; 55 µM in assay [8]; 60.4 µM in assay [9]; 36.9 µM in [10]. In addition, the TGI in assay [11] was greater than 100 µM; in assay [12] it was 27.7 µM; in [19], 25.4 µM; in assay [13], 47 µM; in [14], 34.5 µM; in assay [15], 31.7 µM.
Take `COC(=O)c1ccc2c(c1)CC1(C2)Cc2ccccc2C1=O` (stereo not drawn): the TGI in assay [1] is greater than 100 µM; in assay [2] it was greater than 100 µM; in [16], greater than 100 µM; in [3], 68.6 µM; in [4] it was 67.1 µM; in assay [5] it was greater than 100 µM. Further, the TGI is 82.9 µM in [6]; greater than 100 µM in assay [17]; greater than 100 µM in assay [7]; greater than 100 µM in assay [8]; 84.8 µM in assay [9]; greater than 100 µM in assay [10]. Moreover, the TGI was greater than 100 µM in assay [11]; greater than 100 µM in assay [12]; 56.9 µM in assay [19]; 56.5 µM in assay [18]; greater than 100 µM in assay [13]; greater than 100 µM in assay [15].
Turning to `CCOC(=O)C(=CNc1ccc(F)c(F)c1)C(=O)OCC`, the TGI in [1], in assay [2], in [16], in assay [3], in assay [4] and in assay [5] was greater than 100 µM each time. For the same compound, the TGI in assay [6], in assay [17], in assay [7], in assay [8], in [9] and in assay [10] was greater than 100 µM each time. Further, the TGI in [11], in assay [12], in [19], in assay [18], in [13] and in assay [15] was greater than 100 µM in each case.
Regarding `CCCCCCCCCCCCCCCCNC(=O)/C(=C\c1ccc(Cl)c(Cl)c1)NC(=O)c1ccccc1`, the TGI in [1] was greater than 100 µM; in assay [2] it was greater than 100 µM; in [16] it was 30.8 µM; in [3] it was greater than 100 µM; in assay [4], greater than 100 µM; in assay [5] it was 48.8 µM. Further, the TGI was 34.7 µM in [6]; 81.5 µM in assay [17]; 52.6 µM in assay [7]; greater than 100 µM in [8]; 40.3 µM in assay [9]; greater than 100 µM in assay [10]. The TGI in assay [11] was greater than 100 µM; in assay [12], greater than 100 µM; in assay [19], 22 µM; in assay [13] it was 35.5 µM; in [15] it was greater than 100 µM.
With `CC(C)[C@H]1NC(=O)[C@H]2N=C(S[C@H]2C)[C@@H]2CCCN2C(=O)[C@H](Cc2ccccc2)NC(=O)[C@@H]2CSC(=N2)[C@@H](Cc2ccccc2)NC(=O)[C@@H]2CSC1=N2`, the TGI in assay [1], in [2], in assay [16], in assay [3], in assay [4] and in assay [5] was greater than 50 µM each time. The TGI in assay [17], in [7], in assay [8], in assay [9], in assay [10] and in assay [11] was greater than 50 µM each time. Moreover, the TGI is greater than 50 µM in assay [12]; 16.3 µM in [19]; 46.4 µM in assay [18]; 41.7 µM in assay [13]; greater than 50 µM in [14]; greater than 50 µM in assay [15].
As to `O=C(Cn1c2ccc(Br)cc2c2nc3ccccc3nc21)Nc1ccccc1`, the TGI was 38.2 µM in assay [1]; 73.5 µM in assay [2]; 45.1 µM in [3]; 79 µM in [4]; greater than 100 µM in [5]; 32.4 µM in assay [6]. The TGI is greater than 100 µM in assay [17]; 93.6 µM in assay [7]; greater than 100 µM in assay [8]; 34.2 µM in [9]; 28.4 µM in [10]; 66.8 µM in [11]. For the same compound, the TGI is greater than 100 µM in [12]; greater than 100 µM in assay [18]; greater than 100 µM in [13]; greater than 100 µM in assay [14]; 57.1 µM in assay [15].
Consider `Cc1[nH]c(-c2ccccc2)c2nc(N(C)C)oc(=O)c12`, for which the TGI in [1], in assay [2], in [16], in assay [3], in [4] and in assay [5] was greater than 100 µM in each case. Also, the TGI in assay [6], in [17], in assay [7], in assay [8], in assay [9] and in assay [10] was greater than 100 µM throughout. Moreover, the TGI in assay [11], in assay [19], in assay [18], in assay [13], in assay [14] and in assay [15] was greater than 100 µM each time.
As for `COC(=O)[C@@](NC(=O)OCc1ccccc1)([C@H](C)O)C(F)(F)F`, the TGI in assay [1], in assay [2], in assay [3], in assay [4], in assay [5] and in [6] was greater than 100 µM throughout. The TGI in assay [7], in assay [8], in assay [9], in [10], in [11] and in assay [12] was greater than 100 µM each time. In addition, the TGI in [19], in [18], in [13], in assay [14] and in assay [15] was greater than 100 µM in each case.
For the compound `COc1ccc(COCC[C@H](C)OC2OC(CO)C(O)C(O)C2O)cc1` (stereo partly drawn), the TGI in [1], in assay [2], in assay [16], in [3], in assay [5] and in [6] was greater than 100 µM throughout. Moreover, the TGI in assay [17], in assay [7], in [8], in assay [9], in assay [10] and in assay [11] was greater than 100 µM each time. Moreover, the TGI in assay [12], in assay [19], in assay [18], in [13], in assay [14] and in [15] was greater than 100 µM in each case.
For `Cc1ccc(S(=O)(=O)N2CCSCCSCCSCCN(S(=O)(=O)c3ccc(C)cc3)CC2)cc1`, the TGI in [1], in [2], in assay [16], in assay [3], in [5] and in assay [6] was greater than 100 µM in each case. Also, the TGI in [17], in assay [7], in [8], in assay [9], in assay [10] and in assay [11] was greater than 100 µM each time. Further, the TGI in [12], in assay [19], in [13], in assay [14] and in assay [15] was greater than 100 µM in each case.
`Cc1cn(C2CC(N=[N+]=[N-])C(COP(=O)(O)OCC3OC(n4cc(F)c(=O)[nH]c4=O)CC3O)O2)c(=O)[nH]c1=O` (stereo not drawn): the TGI in [1] is greater than 100 µM; in assay [2], greater than 100 µM; in assay [16], greater than 44 µM; in [3] it was greater than 24.6 µM; in assay [4], greater than 20.2 µM; in assay [5], greater than 100 µM. Further, the TGI in assay [17] is greater than 100 µM; in assay [7] it was greater than 79.7 µM; in assay [8], greater than 100 µM; in assay [9], greater than 100 µM; in assay [10], greater than 100 µM; in assay [11], greater than 100 µM. The TGI in assay [12], in assay [19], in assay [18], in [13], in [14] and in assay [15] was greater than 100 µM throughout.
